Where two headings read alike, the source gives them in different places.
How the values were obtained:
[1] = for elimination half-life: metabolite in plasma after iv cocaine, unaffected by donepezil treatment
Cardiovascular response = format: in vivo, human
rats [2] = conditions: cited from earlier work
rodent = rodent studies, acute; cited from earlier work
rats [3] = conditions: cited from earlier work; remark: listed apart in the source
[4] = rat model of ischemic heart disease

For CN1[C@H]2CC[C@@H]1[C@@H](C(=O)O)[C@@H](OC(=O)c1ccccc1)C2 [Benzoylecgonine, benzoylecgonine], the elimination half-life [1] was “approximately six hours”.
With COC(=O)[C@H]1[C@@H](OC(=O)c2ccccc2)C[C@@H]2CC[C@H]1N2C [Cocaine, cocaine] the “change in systolic blood pressure” value (Cardiovascular response; iv cocaine 0.18 and 0.36 mg/kg, most pronounced over the initial 30 minutes) was “dose-related increases” and the Tmax ([1]; human, in vivo, iv, 0.36 mg/kg) was 10 min.
With COc1cc2c(cc1OC)C(=O)C(CC1CCN(Cc3ccccc3)CC1)C2 (centres unmarked) [Donepezil, donepezil] the “effect on increases in blood pressure” value (Cardiovascular response; oral donepezil 5 mg daily, high-dose cocaine (0.36 mg/kg iv)) was “not affected”, the “effect on diastolic blood pressure and heart rate after cocaine” value (Cardiovascular response; oral donepezil 5 mg daily, iv cocaine, data not shown) was “unaffected” and the “effect on peak values of blood pressure and heart rate” value (Cardiovascular response; oral donepezil 5 mg daily, iv placebo or cocaine 0.18 and 0.36 mg/kg) was “did not modify peak values”. For the same molecule, the “effect on drug-induced elevations of systolic blood pressure” value (Cardiovascular response; oral donepezil 5 mg daily, low-dose cocaine (0.18 mg/kg iv), p < 0.001) was “attenuated”, the blood pressure (rats [2]; [4]) was “without affecting blood pressure” and the heart rate (rats [2]; [4]) was “decreased heart rate”. The “heart failure and survival” value (rats [2]; rat, following coronary artery ligation) was “prevent heart failure and improve survival” and the cocaine self-administration (rodent) was “attenuate cocaine self-administration”.
For COC(=O)[C@@H]1[C@H]2CC[C@@H](C[C@@H]1O)N2C [Ecgonine Methyl Ester, ecgonine methyl ester], the elimination half-life [1] was “approximately five hours”.
For CNC(=O)Oc1ccc2c(c1)[C@]1(C)CCN(C)[C@@H]1N2C [physostigmine], the cocaine-induced lethality (rats [3]; high doses of physostigmine) is given as “increased” and the cocaine-induced lethality (rats [3]; low doses of physostigmine) is given as “decreased”.
